Laboratory results: PubChem BioAssay AID248 (DTP/NCI, 2004)
Where “and” joins values, the source holds several entries; their conditions need not be identical. Equal entries are not always repeated. Inconclusive results and toxic doses are left out. Rule as the data show it: active = T/C of 150% or more; inactive = T/C below 125%.

Test system: L1210 leukemia ip in BDF1 mice, survival T/C
Test: NCI In Vivo Anticancer Drug Screen. Data for tumor model L1210 Leukemia (intraperitoneal) in B6D2F1 (BDF1) mice
Conditions: endpoint: mean survival time, higher = longer survival
Procedure, shortened: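 Transplanted-tumor mice were given test agent; controls received vehicle only. Survival readings from the two groups were divided (treated over control).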

[1] = dose: 50.0 mg/kg/injection, schedule: Q01DX009 (ip), vehicle: Klucel (hydroxypropylcellulose) (HPC)
[2] = dose: 100.0 mg/kg/injection, schedule: Q01DX009 (ip), vehicle: Klucel (hydroxypropylcellulose) (HPC)
[3] = dose: 100.0 mg/kg/injection, schedule: Q04DX003 (ip), vehicle: saline with Tween-80
[4] = dose: 200.0 mg/kg/injection, schedule: Q04DX003 (ip), vehicle: saline with Tween-80
[5] = dose: 400.0 mg/kg/injection, schedule: Q04DX003 (ip), vehicle: saline with Tween-80
[6] = dose: 100.0 mg/kg/injection, schedule: Q01DX001 (ip), vehicle: carboxymethylcellulose (CMC)
[7] = dose: 200.0 mg/kg/injection, schedule: Q01DX001 (ip), vehicle: carboxymethylcellulose (CMC)
[8] = dose: 400.0 mg/kg/injection, schedule: Q01DX001 (ip), vehicle: carboxymethylcellulose (CMC)
[9] = dose: 50.0 mg/kg/injection, schedule: Q01DX001 (ip), vehicle: carboxymethylcellulose (CMC)
[10] = dose: 100.0 mg/kg/injection, schedule: Q04DX003 (ip), vehicle: Klucel (hydroxypropylcellulose) (HPC)
[11] = dose: 200.0 mg/kg/injection, schedule: Q04DX003 (ip), vehicle: Klucel (hydroxypropylcellulose) (HPC)
[12] = dose: 100.0 mg/kg/injection, schedule: Q01DX001 (ip), vehicle: saline
[13] = dose: 200.0 mg/kg/injection, schedule: Q01DX001 (ip), vehicle: saline
[14] = dose: 400.0 mg/kg/injection, schedule: Q01DX001 (ip), vehicle: saline
[15] = dose: 200.0 mg/kg/injection, schedule: Q01DX009 (ip), vehicle: Klucel (hydroxypropylcellulose) (HPC)
[16] = dose: 400.0 mg/kg/injection, schedule: Q01DX009 (ip), vehicle: Klucel (hydroxypropylcellulose) (HPC)

Measured: T/C

Nc1ccc2c(c1)S(=O)(=O)c1cc(N)c(S(=O)(=O)O)cc1-2
inactive: dose: 100.0 mg/kg/injection, schedule: Q04DX002 (ip), vehicle: Klucel (hydroxypropylcellulose) (HPC) 115 % of control | dose: 200.0 mg/kg/injection, schedule: Q04DX002 (ip), vehicle: Klucel (hydroxypropylcellulose) (HPC) 94 % of control | dose: 400.0 mg/kg/injection, schedule: Q04DX002 (ip), vehicle: Klucel (hydroxypropylcellulose) (HPC) 97 % of control

O=C1NC(c2ccc3ccccc3n2)Nc2ccccc21 (stereo not given)
inactive: [1] 92 % of control | [2] 93 % of control | dose: 150.0 mg/kg/injection, schedule: Q01DX009 (ip), vehicle: Klucel (hydroxypropylcellulose) (HPC) 90 % of control

S=C1SCN(C(c2ccccc2)c2ccccc2)CN1C(c1ccccc1)c1ccccc1
inactive: [3] 95 % of control | [4] 94 % of control | [5] 96 % of control

O=C1c2cc([N+](=O)[O-])ccc2-c2cc(Br)c(N=C(NO)C(F)(F)F)cc21
inactive: [6] 103 % of control | [7] 98 % of control | [8] 95 % of control

O=C1OC(=O)C2C3C=CC(C3)C12 (stereo not given)
inactive: dose: 12.5 mg/kg/injection, schedule: Q01DX009 (ip), vehicle: saline with Tween-80 97 % of control | dose: 25.0 mg/kg/injection, schedule: Q01DX009 (ip), vehicle: Klucel (hydroxypropylcellulose) (HPC) 100 % of control | dose: 25.0 mg/kg/injection, schedule: Q01DX009 (ip), vehicle: saline with Tween-80 100 % of control | [9] 104 % of control | [1] 96 % of control | dose: 50.0 mg/kg/injection, schedule: Q01DX009 (ip), vehicle: saline with Tween-80 96 % of control | [6] 106 % of control and 96 % of control | [2] 105 % of control and 87 % of control | dose: 100.0 mg/kg/injection, schedule: Q01DX009 (ip), vehicle: saline with Tween-80 90 % of control | [10] 102 % of control | [3] 98 % of control | [7] 104 % of control and 91 % of control | dose: 200.0 mg/kg/injection, schedule: Q01DX009 (ip), vehicle: saline with Tween-80 92 % of control | [11] 89 % of control | [4] 98 % of control | [8] 95 % of control and 96 % of control | dose: 400.0 mg/kg/injection, schedule: Q01DX009 (ip), vehicle: saline with Tween-80 88 % of control | [5] 97 % of control

CCO/N=C1\C(C)(C)C(C)(C)C(C)(C)C1(C)SS(=O)(=O)O (stereo not given)
inactive: dose: 75.0 mg/kg/injection, schedule: Q04DX002 (ip), vehicle: saline 101 % of control | dose: 150.0 mg/kg/injection, schedule: Q04DX002 (ip), vehicle: saline 96 % of control | dose: 300.0 mg/kg/injection, schedule: Q04DX002 (ip), vehicle: saline 93 % of control

CCCCN1CC1CC (stereo not given)
inactive: dose: 25.0 mg/kg/injection, schedule: Q04DX003 (ip), vehicle: Klucel (hydroxypropylcellulose) (HPC) 105 % of control | dose: 50.0 mg/kg/injection, schedule: Q04DX003 (ip), vehicle: Klucel (hydroxypropylcellulose) (HPC) 95 % of control | dose: 100.0 mg/kg/injection, schedule: Q01DX001 (ip), vehicle: Klucel (hydroxypropylcellulose) (HPC) 108 % of control | [10] 103 % of control

O=C1Nc2ccccc2C1=NC1CCCC1
inactive: [12] 93 % of control | [13] 98 % of control | [14] 97 % of control

CC(=O)Nc1ccc(Cc2ccc(N)cc2)cc1
inactive: [12] 108 % of control | [13] 104 % of control

CCC1(C2=CCCCC2)C(=O)NC(=S)NC1=O
inactive: dose: 75.0 mg/kg/injection, schedule: Q01DX001 (ip), vehicle: saline 102 % of control | dose: 150.0 mg/kg/injection, schedule: Q01DX001 (ip), vehicle: saline 106 % of control | dose: 300.0 mg/kg/injection, schedule: Q01DX001 (ip), vehicle: saline 104 % of control

Cc1ccc(/C=C\C(=O)OCCCCOC(=O)/C=C/c2ccc(C)cc2)cc1
inactive: dose: 50.0 mg/kg/injection, schedule: Q01DX001 (ip), vehicle: saline 97 % of control | [12] 95 % of control | [13] 91 % of control | [14] 95 % of control

CCCCCC/S(C)=N\S(=O)(=O)c1ccc(Br)cc1 (stereo not given)
inactive: [9] 100 % of control | [6] 103 % of control | [7] 97 % of control | [8] 114 % of control

CCCCCCCCCCCCCCCCCC(=O)N/N=C/c1ccc(OCC)c(OC)c1
inactive: [2] 86 % of control | [15] 91 % of control | [16] 88 % of control

CC(C)CC(N)C(N)=O (stereo not given)
inactive: dose: 12.5 mg/kg/injection, schedule: Q04DX002 (ip), vehicle: saline 107 % of control | dose: 25.0 mg/kg/injection, schedule: Q04DX002 (ip), vehicle: saline 100 % of control | dose: 50.0 mg/kg/injection, schedule: Q04DX002 (ip), vehicle: saline 107 % of control

CCCCCCCCCCCCCCCC(=O)Nc1c(C)cccc1Cl
inactive: dose: 100.0 mg/kg/injection, schedule: Q04DX002 (ip), vehicle: saline with Tween-80 96 % of control | dose: 200.0 mg/kg/injection, schedule: Q04DX002 (ip), vehicle: saline with Tween-80 88 % of control | dose: 400.0 mg/kg/injection, schedule: Q04DX002 (ip), vehicle: saline with Tween-80 93 % of control

Clc1ccc2noc(-c3ccccc3)c2c1
inactive: [12] 104 % of control | [2] 95 % of control | [10] 100 % of control | [13] 100 % of control | [15] 102 % of control | [11] 94 % of control | [14] 98 % of control | [16] 95 % of control | dose: 400.0 mg/kg/injection, schedule: Q04DX003 (ip), vehicle: Klucel (hydroxypropylcellulose) (HPC) 90 % of control

NC(N)=N/N=C/C(O)CO (stereo not given)
inactive: dose: 15.0 mg/kg/injection, schedule: Q01DX Z (ip), vehicle: methylcellulose (MC) 104 % of control | dose: 30.0 mg/kg/injection, schedule: Q01DX Z (ip), vehicle: methylcellulose (MC) 113 % of control | dose: 60.0 mg/kg/injection, schedule: Q01DX Z (oral), vehicle: methylcellulose (MC) 117 % of control | dose: 240.0 mg/kg/injection, schedule: Q01DX Z (oral), vehicle: methylcellulose (MC) 93 % of control
